Our source for the MIC and inhibition values is article PMC9045277, “Quercetin Reduces the Virulence of S. aureus by Targeting ClpP to Protect Mice from MRSA-Induced Lethal Pneumonia” (Microbiology Spectrum, 2022).

Converted amounts (≈) assume the structure as drawn.
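For Relative inhibition rate (%) in this document: ClpP peptidase activity measured as fluorescence (ex 360 nm, em 465 nm) from cleavage of Suc-LY-AMC substrate at 100 µM, 30 min at 32°C.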

The test system of the first assay is T1, S. aureus USA300 (MRSA).
T1 construct: USA300
Description: microbe, parasite or virus in culture. Also noted: MIC, growth inhibition of MRSA USA300. The note with it: Staphylococcus aureus, read-out: MIC (μg/mL).
On to `C=C(C)[C@H](CC=C(C)C)Cc1c(O)cc(O)c2c1O[C@H](c1ccc(O)cc1O)CC2=O` [Nor-kurarinone], for which the MIC was 2 µg/mL (≈ 4.71 µM).
On the same count and under the same terms, next, `CC(C)=CCc1c(O)ccc(C(=O)/C=C/c2ccc(O)cc2)c1O` [isobavachalcone]: 8 µg/mL (≈ 24.7 µM).

The target in a further assay is T2, ClpP (Staphylococcus aureus, UniProt Q2G036).
T2 construct: pET28a-clpP, purified from E. coli BL21(DE3)
T2 sequence (Q2G036 whole entry): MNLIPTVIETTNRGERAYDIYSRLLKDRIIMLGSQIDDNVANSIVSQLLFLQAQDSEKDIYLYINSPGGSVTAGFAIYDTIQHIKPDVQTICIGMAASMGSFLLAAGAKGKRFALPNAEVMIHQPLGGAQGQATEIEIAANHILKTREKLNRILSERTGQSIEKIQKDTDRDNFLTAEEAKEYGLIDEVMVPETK
Briefly: biochemical. The note with it: read-out: Relative inhibition rate (%).
Description: This property was exploited to screen the available laboratory library of small molecules for ClpP inhibitors. First, 10 μM ClpP and 64 μg/mL of the small molecule compound were added to a black opaque 96-well plate containing 100 μL of ClpP buffer (100 mM HEPES,100 mM NaCl) and incubated for 1 h at room temperature. Afterward, 100 μM Suc-LeuTyr-AMC (Cat number S1153, Sigma-Aldrich, St. Louis, MO, USA) was added to 96-well plates and incubated for 30 min at 32°C. Finally, the fluorescence values were detected by Infinite M200 (360 nm excitation/465 nm emission). […] Since the fluorescent substrate Suc-LY-AMC can be used to detect the activity of ClpP protein, we screened a library of natural products available in our laboratory.
What is called inhibition is how much of the control response was suppressed. `C[C@@H]1O[C@@H](OC[C@H]2O[C@@H](Oc3cc(O)c4c(=O)cc(-c5ccc(O)cc5)oc4c3)[C@H](O[C@@H]3O[C@@H](C)[C@H](O)[C@@H](O)[C@H]3O)[C@@H](O)[C@@H]2O)[C@H](O)[C@H](O)[C@H]1O` [Ligustroflavone]: the inhibition at 64 µg/mL worked out at 26.6 ± 1.16%.
The same measure, in the same setting: next, `O=C1C[C@@H](c2ccc(O[C@@H]3O[C@H](CO)[C@@H](O)[C@H](O)[C@H]3O)cc2)Oc2cc(O)ccc21` [Liquiritin]: 3.2 ± 0.97%; `COC(=O)C1=CO[C@@H](O[C@@H]2O[C@H](CO)[C@@H](O)[C@H](O)[C@H]2O)[C@@H]2[C@@H](C)[C@@H](O)C[C@H]12` [Loganin]: 14.7 ± 3.56%.
On the same count and under the same terms, next, `COc1ccc(CCC(=O)c2ccc(O)cc2)c(OC)c1` [Loureirin A]: 56.5 ± 2.47%; `COc1cc(OC)c(CCC(=O)c2ccc(O)cc2)c(OC)c1` [Loureirin B]: 29.8 ± 2.24%.
For `CC1=C[C@H](O)CC(C)(C)[C@H]1/C=C/C(C)=C/C=C/C(C)=C/C=C/C=C(C)/C=C/C=C(C)/C=C/C1=C(C)C[C@@H](O)CC1(C)C` [Lutein], the inhibition at 64 µg/mL worked out at 1.4 ± 0.52%.
The same measure, in the same setting: with `COc1ccc(-c2cc(=O)c3c(O)c(OC)c(O)c(OC)c3o2)cc1` [Lysionotin] the figure was 59.1 ± 1.55%; with `O=C1C[C@@H](c2ccc(O)cc2)Oc2cc(O)cc(O)c21` [Naringenin], 8.2 ± 0.24%.
Same read-out and setting: with `C[C@@H]1O[C@@H](O[C@H]2[C@H](Oc3cc(O)c(C(=O)CCc4ccc(O)cc4)c(O)c3)O[C@H](CO)[C@@H](O)[C@@H]2O)[C@H](O)[C@H](O)[C@H]1O` [Naringin dihydrochalcone] the figure was 20.6 ± 0.51%.
For `C=C(C)[C@H](CC=C(C)C)Cc1c(O)cc(O)c2c1O[C@H](c1ccc(O)cc1O)CC2=O` [Nor-kurarinone], the inhibition at 64 µg/mL worked out at 83.3 ± 0.02%.
Same read-out and setting: next, `O=c1cc(-c2ccc(O)c(O)c2)oc2c([C@@H]3O[C@H](CO)[C@@H](O)[C@H](O)[C@H]3O)c(O)cc(O)c12` [Orientin]: 61.4 ± 1.24%; `COc1ccc(C(C)=O)c(O)c1` [Paeonol]: 26.7 ± 4.31%; `COc1ccc(-c2cc(=O)c3c(O)c(OC)c(O[C@@H]4O[C@H](CO[C@@H]5O[C@@H](C)[C@H](O)[C@@H](O)[C@H]5O)[C@@H](O)[C@H](O)[C@H]4O)cc3o2)cc1` [Pectolinarin]: 28.3 ± 1.37%.
On to `COc1cc2c(cc1O)C[C@H]1c3cc(O)c(OC)cc3CC[N+]1(C)C2` (stereo partly shown) [Phellodendrine chloride], for which the inhibition at 64 µg/mL was 10.2 ± 2.67%.
On the same count and under the same terms, with `O=C(CCc1ccc(O)cc1)c1c(O)cc(O)cc1O[C@@H]1O[C@H](CO)[C@@H](O)[C@H](O)[C@H]1O` [Phlorizin] the figure was 5.3 ± 0.71%; with `O=C1C[C@@H](c2ccccc2)Oc2cc(O)cc(O)c21` [Pinocembrin], 33.7 ± 0.68%; with `C/C=C(/C)C(=O)O[C@H]1[C@@H](OC(C)=O)c2c(ccc3ccc(=O)oc23)OC1(C)C` [Praeruptorin A], 37.8 ± 3.15%.
Consider `COc1ccc(-c2oc3c(OC)c(O)cc(O)c3c(=O)c2O)cc1` [Prudomestin], for which the inhibition at 64 µg/mL came to 54.2 ± 4.67%.
In the case of `O=C1c2ccccc2C(=O)c2c(O)c(O)cc(O)c21` [Purpurin], the inhibition at 64 µg/mL worked out at 11.6 ± 2.51%.
On to `COc1ccc(/C=C/c2cc(O)cc(O)c2)cc1O` [Rhapontigenin], for which the inhibition at 64 µg/mL was determined as 42.2 ± 2.89%.
Consider `C[C@@H]1O[C@@H](O[C@H]2[C@H](Oc3cc(O)c4c(=O)cc(-c5ccc(O)cc5)oc4c3)O[C@H](CO)[C@@H](O)[C@@H]2O)[C@H](O)[C@H](O)[C@H]1O` [Rhoifolin], for which the inhibition at 64 µg/mL worked out at 46.7 ± 1.3%.
The same measure, in the same setting: with `COc1cc(O)c2c(c1)O[C@H](c1ccc(O)cc1)CC2=O` [Sakuranetin] the figure was 3.9 ± 1.2%; with `C[C@H]1CC[C@@]2(OC1)O[C@H]1C[C@H]3[C@@H]4CC[C@@H]5C[C@@H](O)CC[C@]5(C)[C@H]4CC[C@]3(C)[C@H]1[C@@H]2C` [Sarsasapogenin], 7.8 ± 0.96%.
With `CC(C)=CC[C@@H](O)C1=CC(=O)c2c(O)ccc(O)c2C1=O` [Shikonin], the inhibition at 64 µg/mL was found to be 13.4 ± 1.54%.
On the same count and under the same terms, next, `COc1cc([C@@H]2Oc3c(O)cc([C@H]4Oc5cc(O)cc(O)c5C(=O)[C@@H]4O)cc3[C@H]2CO)ccc1O` [Silicristin]: 9.3 ± 0.83%; `C=CC/C(=N/OS(=O)(=O)O)S[C@@H]1O[C@H](CO)[C@@H](O)[C@H](O)[C@H]1O` [Sinigrin]: 20.1 ± 4.17%; `COc1ccc(-c2cc(=O)c3c(OC)c(OC)c(OC)c(OC)c3o2)cc1` [Tangeretin]: 41.2 ± 1.53%.
With `Cc1coc2c1C(=O)C(=O)c1c-2ccc2c(C)cccc12` [Tanshinone I], the inhibition at 64 µg/mL was 12.3 ± 1.41%.
Regarding `O=C1c2c(O)cc(O)cc2O[C@H](c2ccc(O)c(O)c2)[C@H]1O` [Taxifolin], the inhibition at 64 µg/mL was 17.2 ± 1.2%.
Same read-out and setting: with `COc1cc(O)c2c(=O)cc(-c3ccccc3)oc2c1` [Tectochrysin] the figure was 7.1 ± 0.26%; with `O=C(CCCCc1ccc2c(c1)OCO2)N1CCCCC1` [Tetrahydropiperine], 24.5 ± 3.67%; with `C[C@@H]1CC[C@@]2(OC1)O[C@H]1C[C@H]3[C@@H]4CC[C@H]5C[C@@H](O)CC[C@]5(C)[C@H]4CC[C@]3(C)[C@H]1[C@@H]2C` [Tigogenin], 12.3 ± 4.21%.
Turning to `O=C(/C=C/c1ccc(O)cc1)OC[C@H]1O[C@@H](Oc2c(-c3ccc(O)cc3)oc3cc(O)cc(O)c3c2=O)[C@H](O)[C@@H](O)[C@@H]1O` [Tiliroside], the inhibition at 64 µg/mL was determined as 3.6 ± 0.17%.
Still for that read-out and setting: with `CC(C)c1ccc2c(c1O)CC[C@H]1C3=C(CC[C@]21C)C(=O)OC3` [Triptophenolide] the figure was 20.8 ± 0.61%; with `COc1cc(-c2oc3cc(O)cc(O)c3c(=O)c2O[C@@H]2O[C@H](CO[C@@H]3O[C@@H](C)[C@H](O)[C@@H](O)[C@H]3O)[C@@H](O)[C@H](O)[C@H]2O[C@@H]2O[C@@H](C)[C@H](O)[C@@H](O)[C@H]2O)ccc1O` [Typhaneoside], 29.7 ± 0.72%; with `O=c1cc(-c2ccc(O)cc2)oc2c([C@@H]3O[C@H](CO)[C@@H](O)[C@H](O)[C@H]3O)c(O)c([C@@H]3O[C@H](CO)[C@@H](O)[C@H](O)[C@H]3O)c(O)c12` [Vicenin-2], 48.2 ± 2.26%.
Still for that read-out and setting: with `COc1c(O)cc(O)c2c(=O)cc(-c3ccccc3)oc12` [Wogonin] the figure was 35.4 ± 2.11%; with `C=C(C)[C@@H]1CCC(C)=C[C@H]1c1c(O)cc(CCCCC)cc1O` [cannabidiol], 6.8 ± 2.41%; with `CC(C)=CCc1c(O)ccc(C(=O)/C=C/c2ccc(O)cc2)c1O` [isobavachalcone], 97.6 ± 0.26%.
The same measure, in the same setting: with `CC(C)=CCc1c(-c2ccc(O)cc2O)oc2c([C@H]3C=C(C)C[C@@H](c4ccc(O)cc4O)[C@@H]3C(=O)c3ccc(O)cc3O)c(O)cc(O)c2c1=O` [kuwanonG] the figure was 21.2 ± 2.56%; with `O=C(O)[C@H]1O[C@@H](Oc2cc(O)c3c(=O)cc(-c4ccc(O)c(O)c4)oc3c2)[C@H](O)[C@@H](O)[C@@H]1O` [luteolin-7-glucuronide], 47.1 ± 3.25%.
